{"source": "PubChem BioAssay (NCI)", "experiment_in_all_cases": "inhibition of tumour cell growth, NCI panel, 48 h", "key": {"786-0 renal": {"tested_on": "786-0 renal"}, "HL-60(TB) leukemia": {"tested_on": "HL-60(TB) leukemia"}, "M14 melanoma": {"tested_on": "M14 melanoma"}, "MOLT-4 leukemia": {"tested_on": "MOLT-4 leukemia"}, "NCI-H522 lung": {"tested_on": "NCI-H522 lung"}, "OVCAR-3 ovarian": {"tested_on": "OVCAR-3 ovarian"}, "OVCAR-5 ovarian": {"tested_on": "OVCAR-5 ovarian"}, "PC-3 prostate": {"tested_on": "PC-3 prostate"}, "SF-295 CNS": {"tested_on": "SF-295 CNS"}, "SF-539 CNS": {"tested_on": "SF-539 CNS"}, "SK-MEL-28 melanoma": {"tested_on": "SK-MEL-28 melanoma"}, "T-47D breast": {"tested_on": "T-47D breast"}}, "note": "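Each compound was tested at five concentrations against cells in 96-well plates for 48 hours. The concentration for full growth arrest is given as TGI.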"}
{"smiles": "C=CCC1(O)c2cccc(O)c2C(=O)c2c(O)cccc21", "values": [{"measurement": "TGI", "setting": "786-0 renal", "result": "> 100", "unit": "µM"}, {"measurement": "TGI", "setting": "HL-60(TB) leukemia", "result": 47.5, "unit": "µM"}, {"measurement": "TGI", "setting": "M14 melanoma", "result": 59.3, "unit": "µM"}, {"measurement": "TGI", "setting": "MOLT-4 leukemia", "result": "> 100", "unit": "µM"}, {"measurement": "TGI", "setting": "NCI-H522 lung", "result": 75.8, "unit": "µM"}, {"measurement": "TGI", "setting": "OVCAR-3 ovarian", "result": "> 100", "unit": "µM"}, {"measurement": "TGI", "setting": "OVCAR-5 ovarian", "result": "> 100", "unit": "µM"}, {"measurement": "TGI", "setting": "PC-3 prostate", "result": 88, "unit": "µM"}, {"measurement": "TGI", "setting": "SF-295 CNS", "result": "> 100", "unit": "µM"}, {"measurement": "TGI", "setting": "SF-539 CNS", "result": "> 100", "unit": "µM"}, {"measurement": "TGI", "setting": "SK-MEL-28 melanoma", "result": "> 100", "unit": "µM"}, {"measurement": "TGI", "setting": "T-47D breast", "result": 78.3, "unit": "µM"}]}
{"smiles": "COC(=O)C(Cc1ccccc1)NS(=O)(=O)c1ccc(-c2c3nc(c(-c4ccc(S(=O)(=O)NC(Cc5ccccc5)C(=O)OC)cc4)c4ccc([nH]4)c(-c4ccc(S(=O)(=O)NC(Cc5ccccc5)C(=O)OC)cc4)c4nc(c(-c5ccc(S(=O)(=O)NC(Cc6ccccc6)C(=O)OC)cc5)c5ccc2[nH]5)C=C4)C=C3)cc1", "note": "(stereo unspecified)", "values": [{"measurement": "TGI", "setting": "786-0 renal", "result": "> 100", "unit": "µM"}, {"measurement": "TGI", "setting": "HL-60(TB) leukemia", "result": "> 100", "unit": "µM"}, {"measurement": "TGI", "setting": "M14 melanoma", "result": "> 100", "unit": "µM"}, {"measurement": "TGI", "setting": "MOLT-4 leukemia", "result": "> 100", "unit": "µM"}, {"measurement": "TGI", "setting": "NCI-H522 lung", "result": "> 100", "unit": "µM"}, {"measurement": "TGI", "setting": "OVCAR-3 ovarian", "result": "> 100", "unit": "µM"}, {"measurement": "TGI", "setting": "OVCAR-5 ovarian", "result": "> 100", "unit": "µM"}, {"measurement": "TGI", "setting": "PC-3 prostate", "result": "> 100", "unit": "µM"}, {"measurement": "TGI", "setting": "SF-295 CNS", "result": "> 100", "unit": "µM"}, {"measurement": "TGI", "setting": "SF-539 CNS", "result": "> 100", "unit": "µM"}, {"measurement": "TGI", "setting": "SK-MEL-28 melanoma", "result": "> 100", "unit": "µM"}, {"measurement": "TGI", "setting": "T-47D breast", "result": "> 100", "unit": "µM"}]}
{"smiles": "COc1cc(Cn2c3c(c4cc(O)ccc42)C(=O)c2ccccc2C3=O)cc(OC)c1", "values": [{"measurement": "TGI", "setting": "786-0 renal", "result": 10.2, "unit": "µM"}, {"measurement": "TGI", "setting": "HL-60(TB) leukemia", "result": "> 100", "unit": "µM"}, {"measurement": "TGI", "setting": "M14 melanoma", "result": 67.5, "unit": "µM"}, {"measurement": "TGI", "setting": "MOLT-4 leukemia", "result": 90.9, "unit": "µM"}, {"measurement": "TGI", "setting": "NCI-H522 lung", "result": 12.5, "unit": "µM"}, {"measurement": "TGI", "setting": "OVCAR-3 ovarian", "result": 77.7, "unit": "µM"}, {"measurement": "TGI", "setting": "OVCAR-5 ovarian", "result": 32.9, "unit": "µM"}, {"measurement": "TGI", "setting": "PC-3 prostate", "result": 11.8, "unit": "µM"}, {"measurement": "TGI", "setting": "SF-295 CNS", "result": 23.6, "unit": "µM"}, {"measurement": "TGI", "setting": "SF-539 CNS", "result": 7.38, "unit": "µM"}, {"measurement": "TGI", "setting": "SK-MEL-28 melanoma", "result": 28.4, "unit": "µM"}, {"measurement": "TGI", "setting": "T-47D breast", "result": 32.1, "unit": "µM"}]}
{"smiles": "CC(C)(C)OC(=O)C(C1NC(C(=O)O)C(C)(C)S1)N1C(=O)c2ccccc2C1=O", "note": "(stereo unspecified)", "values": [{"measurement": "TGI", "setting": "786-0 renal", "result": "> 100", "unit": "µM"}, {"measurement": "TGI", "setting": "HL-60(TB) leukemia", "result": "> 100", "unit": "µM"}, {"measurement": "TGI", "setting": "M14 melanoma", "result": "> 100", "unit": "µM"}, {"measurement": "TGI", "setting": "MOLT-4 leukemia", "result": "> 100", "unit": "µM"}, {"measurement": "TGI", "setting": "NCI-H522 lung", "result": "> 100", "unit": "µM"}, {"measurement": "TGI", "setting": "OVCAR-3 ovarian", "result": "> 100", "unit": "µM"}, {"measurement": "TGI", "setting": "OVCAR-5 ovarian", "result": "> 100", "unit": "µM"}, {"measurement": "TGI", "setting": "PC-3 prostate", "result": "> 100", "unit": "µM"}, {"measurement": "TGI", "setting": "SF-295 CNS", "result": "> 100", "unit": "µM"}, {"measurement": "TGI", "setting": "SF-539 CNS", "result": "> 100", "unit": "µM"}, {"measurement": "TGI", "setting": "SK-MEL-28 melanoma", "result": "> 100", "unit": "µM"}, {"measurement": "TGI", "setting": "T-47D breast", "result": "> 100", "unit": "µM"}]}
{"smiles": "Cn1cc(-c2ccc(CCOC3CCCCO3)cc2)c2c(C#N)cccc21", "note": "(stereo unspecified)", "values": [{"measurement": "TGI", "setting": "786-0 renal", "result": "> 100", "unit": "µM"}, {"measurement": "TGI", "setting": "HL-60(TB) leukemia", "result": "> 100", "unit": "µM"}, {"measurement": "TGI", "setting": "M14 melanoma", "result": "> 100", "unit": "µM"}, {"measurement": "TGI", "setting": "MOLT-4 leukemia", "result": "> 100", "unit": "µM"}, {"measurement": "TGI", "setting": "NCI-H522 lung", "result": "> 100", "unit": "µM"}, {"measurement": "TGI", "setting": "OVCAR-3 ovarian", "result": "> 100", "unit": "µM"}, {"measurement": "TGI", "setting": "OVCAR-5 ovarian", "result": "> 100", "unit": "µM"}, {"measurement": "TGI", "setting": "PC-3 prostate", "result": "> 100", "unit": "µM"}, {"measurement": "TGI", "setting": "SF-295 CNS", "result": "> 100", "unit": "µM"}, {"measurement": "TGI", "setting": "SF-539 CNS", "result": "> 100", "unit": "µM"}, {"measurement": "TGI", "setting": "SK-MEL-28 melanoma", "result": 42.4, "unit": "µM"}, {"measurement": "TGI", "setting": "T-47D breast", "result": "> 100", "unit": "µM"}]}
{"smiles": "Cc1ccc(S(=O)(=O)C2=c3ncccc3=C3C(=O)c4ccccc4C(=O)C32)cc1", "note": "(stereo unspecified)", "values": [{"measurement": "TGI", "setting": "786-0 renal", "result": 50.3, "unit": "µM"}, {"measurement": "TGI", "setting": "HL-60(TB) leukemia", "result": "> 100", "unit": "µM"}, {"measurement": "TGI", "setting": "M14 melanoma", "result": "> 100", "unit": "µM"}, {"measurement": "TGI", "setting": "MOLT-4 leukemia", "result": "> 100", "unit": "µM"}, {"measurement": "TGI", "setting": "NCI-H522 lung", "result": 85.3, "unit": "µM"}, {"measurement": "TGI", "setting": "OVCAR-3 ovarian", "result": "> 100", "unit": "µM"}, {"measurement": "TGI", "setting": "OVCAR-5 ovarian", "result": "> 83.9", "unit": "µM"}, {"measurement": "TGI", "setting": "PC-3 prostate", "result": "> 100", "unit": "µM"}, {"measurement": "TGI", "setting": "SF-295 CNS", "result": "> 100", "unit": "µM"}, {"measurement": "TGI", "setting": "SF-539 CNS", "result": 46.1, "unit": "µM"}, {"measurement": "TGI", "setting": "SK-MEL-28 melanoma", "result": "> 100", "unit": "µM"}, {"measurement": "TGI", "setting": "T-47D breast", "result": "> 100", "unit": "µM"}]}
{"smiles": "Cc1ccc(C2SC(N)=Nc3c2c(C)nn3C(=O)c2ccncc2)cc1", "note": "(stereo unspecified)", "values": [{"measurement": "TGI", "setting": "786-0 renal", "result": "> 10", "unit": "µM"}, {"measurement": "TGI", "setting": "HL-60(TB) leukemia", "result": "> 10", "unit": "µM"}, {"measurement": "TGI", "setting": "M14 melanoma", "result": "> 10", "unit": "µM"}, {"measurement": "TGI", "setting": "MOLT-4 leukemia", "result": "> 10", "unit": "µM"}, {"measurement": "TGI", "setting": "NCI-H522 lung", "result": "> 10", "unit": "µM"}, {"measurement": "TGI", "setting": "OVCAR-3 ovarian", "result": "> 10", "unit": "µM"}, {"measurement": "TGI", "setting": "OVCAR-5 ovarian", "result": "> 10", "unit": "µM"}, {"measurement": "TGI", "setting": "PC-3 prostate", "result": "> 10", "unit": "µM"}, {"measurement": "TGI", "setting": "SF-295 CNS", "result": "> 10", "unit": "µM"}, {"measurement": "TGI", "setting": "SF-539 CNS", "result": "> 10", "unit": "µM"}, {"measurement": "TGI", "setting": "SK-MEL-28 melanoma", "result": "> 10", "unit": "µM"}, {"measurement": "TGI", "setting": "T-47D breast", "result": "> 10", "unit": "µM"}]}
{"smiles": "CCNC1CC(C(C)(C)NCC)CC=C1C", "note": "(stereo unspecified)", "values": [{"measurement": "TGI", "setting": "786-0 renal", "result": "> 100", "unit": "µM"}, {"measurement": "TGI", "setting": "HL-60(TB) leukemia", "result": "> 100", "unit": "µM"}, {"measurement": "TGI", "setting": "M14 melanoma", "result": "> 100", "unit": "µM"}, {"measurement": "TGI", "setting": "MOLT-4 leukemia", "result": "> 100", "unit": "µM"}, {"measurement": "TGI", "setting": "NCI-H522 lung", "result": "> 100", "unit": "µM"}, {"measurement": "TGI", "setting": "OVCAR-3 ovarian", "result": "> 100", "unit": "µM"}, {"measurement": "TGI", "setting": "OVCAR-5 ovarian", "result": "> 100", "unit": "µM"}, {"measurement": "TGI", "setting": "PC-3 prostate", "result": "> 100", "unit": "µM"}, {"measurement": "TGI", "setting": "SF-295 CNS", "result": "> 100", "unit": "µM"}, {"measurement": "TGI", "setting": "SF-539 CNS", "result": "> 100", "unit": "µM"}, {"measurement": "TGI", "setting": "SK-MEL-28 melanoma", "result": "> 100", "unit": "µM"}, {"measurement": "TGI", "setting": "T-47D breast", "result": "> 100", "unit": "µM"}]}
